In article PMC7891648, “A simple novel approach for detecting blood–brain barrier permeability using GPCR internalization” (Neuropathology and Applied Neurobiology, 2020):

Key:
[1] = cited from earlier work
Excerpt: The Arc display several populations of neurons that are pivotal for regulating energy homoeostasis, food intake and cardiovascular functions. Because of this central role at the interface between the brain and the periphery, a few studies have hypothesized that the Arc could share common features with classical CVOs. […] We have therefore reinvestigated this subject using our approach. […] Membrane‐associated SST2 in Arc neurons intern ...

SST2 [2] = target: T1, SST2 (Rattus norvegicus, UniProt P30680); settings: P14 rats, 2.5 mg/kg i.p., 45 mins
Method: Adult mice and post‐natal day 14 (P14) male rats. […] Brains were dissected, post‐fixed in the same fixative overnight at 4°C, cryoprotected, frozen in liquid isopentane at −45°C and sectioned in the coronal plane at a thickness of 30 μm and collected in PBS.
The SST2 receptor was immunolocalized on brain sections (in vivo models 1‐5), whole embryo sections (in vivo model 5) and DAOY cells (in vitro model). Brain sections were selected at the level of the circumventricular organs (in vivo model 1), at the level of the focused ultrasound‐mediated BBB opening (in vivo model 2), at the level of the ischaemia‐reperfusion lesions (in vivo model 3), at the level of the traumatic brain injury (in vivo model 4) and at the level of the caudal embryonic cortex (in vivo model 5). See Supporting Information for further details.

SST2 [3] = target: T1, SST2; test: In vivo model 3: juvenile cerebral ischaemia, OCT extravasation detected by SST2 internalization; design: two sensory CVOs in which neurons natively express the SST2; from tissue; host or cells: brain of P14 rats (area postrema, OVLT, arcuate nucleus, cerebral cortex), in vivo; settings: P14 rats, 2.5 mg/kg i.p., 45 mins
Method: Ischaemia‐reperfusion. Ischaemia was induced in P14 rats as previously reported. See Supporting Information for further details.
Cerebral ischaemia. Isoflurane-anaesthetized P14 rats were exposed to proximal left middle cerebral artery electrocoagulation (MCAo) combined with a transient (60 min) double occlusion of common carotid arteries (CCAo). Carotid blood-flow restoration was assessed by release of the carotid clips.

[4] = Tolerability after acute OCT i.p. injection; assay type: in vivo; settings: rat and mice models, 2.5 mg/kg i.p.
[5] = test system: Human Primary Brain Microvascular Endothelial Cell (hPBMEC) monolayers; test: Fluorescein permeability of hPBMEC monolayers (tight junction functionality); assay type: in vitro ADME; settings: hPBMEC monolayer, with 1 M mannitol treatment 30 min, versus basal
Method: The hPBMECs were cultured as previously described [31]. […] Differentiated hPBMECs with the BBB phenotype (TEER> 1000 Ωxcm^2) were treated or not with 1 M mannitol in serum‐free culture medium for 30 min to temporarily open tight junctions. Then, mannitol solution was removed and replaced by culture medium. Tight junction opening was evaluated with the measurements of fluorescein permeability, a small hydrophilic compound known to cross the BBB via the paracellular route. […] The medium of the abluminal compartment was then collected during a 2‐hour period (n = 3 per condition).
The experimentation was conducted in compliance with the French legislation, and the protocol was permitted by the French Ministry of Higher Education and Research (CODECOH DC-2014-2229). Brain capillaries were isolated using soft digestion of patient brain tissues and then seeded. Brain primary microvascular endothelial cells were shortly amplified and seeded on 12-well-type Transwell® (Corning, membrane area: 1.12 cm^2) with microporous membranes (pore size: 0.4 µm). Cells were cultured in EBM-2 medium (Lonza, Basel, Switzerland) supplemented with 20% serum and growth factors (Sigma-Aldrich, St. Louis, MO, USA). Transendothelial electrical resistance (TEER) was measured as an integrity marker and to assess cellular barrier tightness.

SST2 [6] = target: T2, SST2 (Mus musculus, UniProt P30875); test: In vivo model 2: focused ultrasound-mediated BBB disruption, extravasation detected by SST2 internalization or MRI; settings: after microbubble sonication of the targeted area, i.v.
T2 construct: The endogenous SST2 was immunolocalized using an extensively characterized rabbit monoclonal antibody; from tissue; host or cells: brain of adult C57Bl/6 mice, P7 OF1 mouse pups and C57Bl/6 embryos (E13.5-E18.5), in vivo
Method: BBB disruption induced by magnetic resonance imaging (MRI)‐guided focused ultrasound (FUS) (MRgFUS) was performed as previously reported [28].
Stereological measures of estimated volume in the in vivo model 2 was performed with the Volumest plug‐in [32] in the Fiji distribution of ImageJ [33]. Brightfield images of serial coronal sections separated by 180 μm were collected. The number of serial sections, the thickness of the sections, the sampling interval and pixel‐to‐μm scaling were entered into the Volumest plug‐in. Next, the cortical areas displaying BBB disruption detected by SST2 internalization were manually traced and the volume estimate was calculated in the Volumest plug‐in [32].
Adult C57Bl/6 mice (n=3) were anaesthetized with isoflurane (1-2% at beginning, then 0.8% during MRI acquisition). The catheter was installed in the tail vein and the head was shaved with a depilatory cream. Mice were then installed on the MRgFUS system (Image Guided Therapy) and the transducer was placed on their head. MR contrast agent (MRCA) (Dotarem, Guerbet, France; 0.1 mL) was injected intravenously outside the MRI tunnel, before the baseline MRI acquisition. Mice were then removed from the MRI tunnel in order to inject the ultrasound contrast agent (UCA) (Sonovue, Bracco, Italy; 0.15 mL). […]

[7] = cited from earlier work; remark: listed apart in the source

T1 sequence (P30680 whole entry): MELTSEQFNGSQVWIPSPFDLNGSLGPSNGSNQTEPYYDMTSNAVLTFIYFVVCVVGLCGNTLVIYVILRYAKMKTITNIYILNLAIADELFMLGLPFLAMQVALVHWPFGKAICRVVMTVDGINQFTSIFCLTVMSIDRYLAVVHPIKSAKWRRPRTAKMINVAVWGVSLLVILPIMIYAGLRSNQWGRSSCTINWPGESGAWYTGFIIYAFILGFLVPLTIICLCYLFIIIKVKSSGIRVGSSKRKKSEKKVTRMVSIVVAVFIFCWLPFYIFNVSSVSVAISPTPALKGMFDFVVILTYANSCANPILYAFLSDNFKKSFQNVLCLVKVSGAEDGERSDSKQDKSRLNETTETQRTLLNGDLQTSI
T2 sequence (P30875 whole entry): as the sequence (P30680 whole entry) above, with L3M, T4S, F8L, I15V, P16S, G168C, A335T counted along it

For `Cc1cc(-c2ccc(/N=N/c3ccc4c(S(=O)(=O)O)cc(S(=O)(=O)O)c(N)c4c3O)c(C)c2)ccc1/N=N/c1ccc2c(S(=O)(=O)O)cc(S(=O)(=O)O)c(N)c2c1O` [Evans blue], which “dye extravasation in the Arc” value [1] is on record?
The value was “extravasated only in the Arc of 24‐hour fasted mice but not in control‐fed mice”.

Which “SST2 immunoreactivity in AP and OVLT (permeable capillaries)” value (SST2 [2]) does the source give for `C[C@@H](O)[C@@H]1NC(=O)[C@H](CCCCN)NC(=O)[C@@H](Cc2c[nH]c3ccccc23)NC(=O)[C@H](Cc2ccccc2)NC(=O)[C@@H](NC(=O)[C@H](N)Cc2ccccc2)CSSC[C@@H](C(=O)N[C@H](CO)[C@@H](C)O)NC1=O` [OCT, octreotide] here?
The value was “immunoreactivity was confined to intracytoplasmic granules near the nucleus and in proximal dendrites”.

And the “SST2 in arcuate nucleus neurons” value (SST2 [2]; naïve animals)?
The value was “internalized and clustered in TGN‐like structures”.

And the “SST2 internalization around cortical lesion” value (SST2 [3]; 6 h after ischaemia)?
The value was “few neurons with internalized receptors were visible”.

What about the “SST2 internalization around cortical lesion” value (SST2 [3]; 12 h after ischaemia) of the same compound?
Its value is “a larger number of neurons with internalized SST2 are localized in a narrow band”.

What about the “SST2 internalization around cortical lesion” value (SST2 [3]; 24 h after ischaemia) of the same compound?
Its value is “induced large areas of SST2 internalization around the core of the cortical lesion”.

What about the “physiological or behavioural parameters after acute i.p. injection until perfusion” value [4] of the same compound?
The value was “did not observe any gross changes in physiological or behavioural parameters”.

Which “increase of fluorescein permeability” value [5] does the source give for `O=C1OC2(c3ccc(O)cc3Oc3cc(O)ccc32)c2ccccc21` [fluorescein] here?
The value was 600 ± 25%.

Which “Gd extravasation on T1-weighted MRI” value (SST2 [6]) does the source give for `CNC[C@H](O)[C@@H](O)[C@H](O)[C@H](O)CO.O=C([O-])CN1CCN(CC(=O)[O-])CCN(CC(=O)O)CCN(CC(=O)[O-])CC1.[Gd+3]` [gadolinium] here?
Its value is “Extravasation was evident from the cerebral cortex to deep brain structures”.

Which “half-life in the circulation” value [7] does the source give for somatostatin here?
The value was 2 to 3 min.
